According to patent EP0286418A1, “Anti-retroviral agents and delivery systems for the same” (priority 1987, dated 1988):

Legend:
monocytes = experiment: superoxide generation by monocytes; format: cell-based, Human
Description: Human peripheral blood mononuclear cells were obtained by standard procedures employing continuous flow cell separation (leukapheresis), such as described in Wahl, et al., Cellular Immunol. 85:373-383 (1984). The preparation was diluted in phosphate-buffered saline and layered onto gradients of Ficoll-Paque (Pharmacia-PL Biochemicals, Piscataway, N.J., USA). After centrifugation, mononuclear cells were pipetted from the interface, washed, and suspended in DMEM-GG-FCS. They were then fractionated by countercurrent centrifugal elutriation. The procedure comprises the Beckman elutriation system including a J-21 Beckman Centrifuge, a JE-6 elutriator rotor, a stroboscope, and a Masterflex pump and pumphead. The cells were loaded into the rotor and fractionated by elution at increasing flow rates. Fractions 7 and 8, highly enriched for monocytes, were pooled for use.

adherent human monocytes = experiment: uptake of dideoxynucleotides; format: cell-based; conditions: 37°C, drug 1 uM
Description: Uptake of ₃H-deoxyctidine triphosphate (³H-dCTP) was used as an indicator of the uptake of vesicle contents by cells. Uptake experiments were done by plating 5 × 10⁶ monocytes in each well of a 6-well microtiter plate (Costar) and adding reagents one or two days later. Incubations were done in DMEM-GG-FCS at 37°C. The rate of increase of dCTP content in the cells over a 9-hour period (Table 7) averaged 0.29 pmole/million cells/hr with liposomes containing 4 mM EPC. Other experiments established that ddCTP and ddCMP are not readily taken up by the cells (Table 9).

in vitro [1] = format: in vitro ADME
Description: When the same incubations were done in the absence of monocytes, the results were essentially identical.
Studies were conducted under conditions mimicking those of anti-viral tests. ddCMP: dideoxycytidine monophosphate. Data points represent integrals under HPLC peaks from gradient elution on a VYDAC nucleotide column.

HIV-1 (Ba-L) = experiment: inhibition of HIV proliferation in monocytes (p24 antigen ELISA); format: cell-based; conditions: HIV-infected human monocytes; compared with ddCTP liposomes
in vitro [2] = format: in vitro ADME; conditions: serum-containing medium with cells

## Nc1ccn([C@H]2CC[C@@H](COP(=O)(O)OP(=O)(O)OP(=O)(O)O)O2)c(=O)n1 [ddCTP, 2ʹ,3ʹ-dideoxycytidine-5ʹ-triphosphate]
monocytes; ddCTP 2.2 uM
  Superoxide: 1.21 (.02) nmoles/well
monocytes; ddCTP 11 uM
  Superoxide: 0.85 (.04) nmoles/well
monocytes; ddCTP 56 uM
  Superoxide: 0.77 (.04) nmoles/well
monocytes; ddCTP .0 uM
  Superoxide: 1.19 (.06) nmoles/well
monocytes; ddCTP .018 uM
  Superoxide: 1.33 (.05) nmoles/well
monocytes; ddCTP .09 uM
  Superoxide: 1.42 (.10) nmoles/well
monocytes; ddCTP .45 uM
  Superoxide: 1.33 (.08) nmoles/well
Adherent human monocytes; 0. h
  pmole drug/1 million cells (mean): 0.15 pmole drug/1 million cells
Adherent human monocytes; 0.33 h
  pmole drug/1 million cells (mean): 0.09 pmole drug/1 million cells
Adherent human monocytes; 1.00 h
  pmole drug/1 million cells (mean): 0.09 pmole drug/1 million cells
Adherent human monocytes; 3.00 h
  pmole drug/1 million cells (mean): 0.11 pmole drug/1 million cells
Adherent human monocytes; 6.00 h
  pmole drug/1 million cells (mean): 0.33 pmole drug/1 million cells
Adherent human monocytes; 9.00 h
  pmole drug/1 million cells (mean): 0.43 pmole drug/1 million cells
Adherent human monocytes; 20.00 h
  pmole drug/1 million cells (mean): 0.66 pmole drug/1 million cells
In vitro [1]
  conversion to ddCMP: largely converted to ddCMP
  fraction present as ddC: 23%
In vitro [1]; 10% fetal calf serum medium, 0.5 h
  Percent of total drug 3H as ddCTP: 39.6%
In vitro [1]; serum-containing medium with cells, 4 h
  Percent of total drug 3H as ddCTP: 1.4%
In vitro [1]; serum-containing medium with cells, 6 h
  Percent of total drug 3H as ddCTP: 1.4%
In vitro [1]; serum-containing medium without cells, 0.75 h
  Percent of total drug 3H as ddCTP: 20.3%
In vitro [1]; serum-containing medium without cells, 1.5 h
  Percent of total drug 3H as ddCTP: 19.5%
In vitro [1]; serum-containing medium without cells, 4 h
  Percent of total drug 3H as ddCTP: 2.7%
In vitro [1]; serum-containing medium without cells, 6 h
  Percent of total drug 3H as ddCTP: 0.6%
In vitro [1]; serum-containing medium without cells, Percent of total drug 3H as ddCTP
  remaining at 72 h: 0%
HIV-1 (Ba-L)
  activity against p24 expression: active at similar concentrations
In vitro [2]; 0.5 h
  Percent of total drug 3H as ddCTP: 67.8%
In vitro [2]; Percent of total drug 3H as ddCTP
  remaining at 72 h: 0%
